Earlier results on 3 compounds are cited in patent publication US8969412B2, “Use for a composition comprising chloroprocaine HCL, a new composition comprising chloroprocaine HCL and a method for its manufacture” (Sintetica S.A., priority 2005, dated 2015).

For series [1] the following is noted: in vivo.
For series [2] the following is noted: intrathecal application.
For series [3] the following is noted: intrathecal anaesthesia.

In the case of `CCN(CC)CCOC(=O)c1ccc(N)cc1Cl` [Chloroprocaine, 2-(diethylaminoethyl)-4-amino-chlorobenzoate], the systemic toxicity result in series [1] is listed as “very low systemic toxicity”.

Turning to `CCN(CC)CC(=O)Nc1c(C)cccc1C` [lidocaine], in series [2], the “transient neurologic syndrome (TNS)” value is “associated with symptoms of so-called transient neurologic syndrome (TNS)”.

In the case of `CCN(CC)CCOC(=O)c1ccc(N)cc1` [procaine], the inadequacy rate in series [3] was 17%.
